2 compounds from ChEMBL document CHEMBL1130970, “Design and synthesis of a water-soluble taxol analogue: taxol-sialyl conjugate” (Bioorg Med Chem Lett, 1998) can be followed below.

In data set [1] the test system is A-427. The data set is described as follows: Inhibitory concentration in human lung carcinoma A427/VCR cell line. Type of data set: functional, cell-based.
For another data set, the species on record is Sus scrofa. Briefly: Concentration that induces microtubule assembly (tubulin obtained from porcine brain) by 50% in the absence of GTP. It counts as functional.
Data set [2] concerns A-427. Briefly: Inhibitory concentration in human lung carcinoma A427 cell line. Type of data set: functional, cell-based.
Data set [3] is described as follows: Solubility was determined. It counts as physicochemical.

The structures appear in SMILES notation. Values after ≈ are worked out from the molar mass of the structure shown.

In the case of `CC(=O)NC1C(O)CC(OCCOCCOCCNC(=O)O[C@H]2C[C@H]3OC[C@@]3(OC(C)=O)C3[C@H](OC(=O)c4ccccc4)[C@]4(O)C[C@H](OC(=O)[C@H](O)[C@@H](NC(=O)c5ccccc5)c5ccccc5)C(C)=C([C@@H](OC(C)=O)C(=O)[C@@]32C)C4(C)C)(C(=O)O)OC1[C@H](O)[C@@H](O)CO` (stereo not given in full), the IC50 (as a rule, the concentration at which inhibition is half-maximal) in the data set on A-427 [1] was 1 µM; in the data set with A-427 [2] it was 0.1 µM. Besides, the ED50 in the data set filed under Sus scrofa was 3.86 µM. Also, the solubility – broadly, the dissolved amount per volume that the medium holds – in data set [3] was 28 mg/mL (≈ 21.2 mM).

Turning to `CC(=O)O[C@H]1C(=O)[C@@]2(C)[C@H]([C@H](OC(=O)c3ccccc3)[C@]3(O)C[C@H](OC(=O)[C@H](O)[C@@H](NC(=O)c4ccccc4)c4ccccc4)C(C)=C1C3(C)C)[C@]1(OC(C)=O)CO[C@@H]1C[C@@H]2O` [PACLITAXEL], in the data set filed under Sus scrofa, the ED50 is 0.86 µM.
